Reference: patent publication US7531646B2, “β-D-ribosidase activity indicators with a chromogenic substrate” (priority 2001, dated 2009)
Counter-ions that a name gives are not always drawn.

Assays:
Assay type in all cases: cell-based
Shigella dysenteriae = assay: Substrate hydrolysis on Columbia agar; conditions: 300 mg/l, 18 hours
K. oxytoca = assay: Substrate hydrolysis on Columbia agar; conditions: 300 mg/l, 18 hours
Aeromonas sobria = assay: Substrate hydrolysis on Columbia agar; conditions: Aeromonas sobria NCTC 11215; 300 mg/l; 18 hours
Salmonella oranienburg = assay: Substrate hydrolysis on Columbia agar; conditions: Salmonella oranienburg SAX 56; 300 mg/l; 18 hours
Salmonella hadar = assay: Substrate hydrolysis on Columbia agar; conditions: Salmonella hadar SAX 57; 300 mg/l; 18 hours
Salmonella orthmarchen = assay: Substrate hydrolysis on Columbia agar; conditions: Salmonella orthmarchen SAX 59; 300 mg/l; 18 hours
Vibrio furnissii = assay: Substrate hydrolysis on Columbia agar; conditions: Vibrio furnissii NCTC 11218; 300 mg/l; 18 hours
Vibrio vulnificus = assay: Substrate hydrolysis on Columbia agar; conditions: 300 mg/l, 18 hours
Salmonella alachia = assay: Substrate hydrolysis on Columbia agar; conditions: Salmonella alachia SAX 60; 300 mg/l; 18 hours
Text: (§1) This was achieved using a densitometer.
(§2) The same method was used as in Example 1.

Shigella boydii = assay: Substrate hydrolysis on Columbia agar; conditions: 300 mg/l, 18 hours
Text: as §1, §2

Shigella flexneri = assay: Substrate hydrolysis on Columbia agar; conditions: 300 mg/l, 18 hours
Text: as §1, §2

Shigella sonnei = assay: Substrate hydrolysis on Columbia agar; conditions: 300 mg/l, 18 hours
Text: as §1, §2

Vibrio mimicus = assay: Substrate hydrolysis on Columbia agar; conditions: Vibrio mimicus NCTC 11435; 300 mg/l; 18 hours
Text: as §1, §2

Vibrio fluvialis = assay: Substrate hydrolysis on Columbia agar; set-up: key to the marks not given beside the values; conditions: Vibrio fluvialis NCTC 11327; 300 mg/l; 18 hours
Vibrio alcaligenes = assay: Substrate hydrolysis on Columbia agar; conditions: Vibrio alcaligenes NCTC 12160; 300 mg/l; 18 hours
Streptococcus salivarius = assay: Substrate hydrolysis on Columbia agar; conditions: Streptococcus salivarius NCTC 8618; 300 mg/l; 18 hours
Streptococcus crista = assay: Substrate hydrolysis on Columbia agar; conditions: Streptococcus crista NCTC 12479; 300 mg/l; 18 hours
[1] = system: Streptococcus vestibularis; assay: Substrate hydrolysis on Columbia agar; conditions: Streptococcus vestibularis NCTC 12166; 300 mg/l; 18 hours
Streptococcus agalactiae = assay: Substrate hydrolysis on Columbia agar; conditions: Streptococcus agalactiae NCTC 8181; 300 mg/l; 18 hours
[2] = system: Haemolytic streptococcus B; assay: Substrate hydrolysis on Columbia agar; conditions: 300 mg/l, 18 hours
[3] = system: Haemolytic streptococcus C; assay: Substrate hydrolysis on Columbia agar; conditions: 300 mg/l, 18 hours
Staphylococcus aureus = assay: Substrate hydrolysis on Columbia agar; conditions: 300 mg/l, 18 hours
[4] = system: Staphylococcus saprophyticus; assay: Substrate hydrolysis on Columbia agar; conditions: 300 mg/l, 18 hours
Enterococcus gellinarum = assay: Substrate hydrolysis on Columbia agar; conditions: Enterococcus gellinarum NCTC 11428; 300 mg/l; 18 hours
Gram positive bacteria = assay: Substrate hydrolysis on Columbia agar, summary of screen; conditions: for Gram positive bacteria tested that hydrolysed the substrate: of 74 Gram positive bacteria tested, 300 mg/l, 18 hours
K. pneumoniae = assay: Substrate hydrolysis on Columbia agar; set-up: key to the marks not given beside the values; conditions: 300 mg/l, 18 hours
E. cloacae = assay: Substrate hydrolysis on Columbia agar; set-up: key to the marks not given beside the values; conditions: 300 mg/l, 18 hours
[5] = Shigella dysenteriae (type 2) NCTC 9952
[6] = Shigella dysenteriae (type 3) NCTC 9720
[7] = Shigella dysenteriae (type 4) NCTC 9759
[8] = Haemolytic streptococcus C 67736
[9] = Haemolytic streptococcus C 68350

3′,4′-dihydroxyflavone-4′-β-D-glucopyranoside sodium salt [DHF-glucoside]
Hydrolysis by Gram negative bacteria (Shigella dysenteriae; [5]): −
Hydrolysis by Gram negative bacteria (Shigella dysenteriae; [6]): −
Hydrolysis by Gram negative bacteria (Shigella dysenteriae; [7]): −
Hydrolysis by Gram negative bacteria (K. oxytoca; K. oxytoca KOX 1): +
Hydrolysis by Gram negative bacteria (K. oxytoca; K. oxytoca KOX 2): +
Hydrolysis by Gram negative bacteria (Aeromonas sobria): −
Hydrolysis by Gram negative bacteria (Salmonella oranienburg): −
Hydrolysis by Gram negative bacteria (Salmonella hadar): −
Hydrolysis by Gram negative bacteria (Salmonella orthmarchen): −
Hydrolysis by Gram negative bacteria (Vibrio furnissii): −
Hydrolysis by Gram negative bacteria (Vibrio vulnificus; Vibrio vulnificus NCTC 11066): +
Hydrolysis by Gram negative bacteria (Vibrio vulnificus; Vibrio vulnificus NCTC 11067): +
Hydrolysis by Gram negative bacteria (Salmonella alachia): −
Hydrolysis by Gram negative bacteria (Shigella boydii; Shigella boydii NCTC 9327): −
Hydrolysis by Gram negative bacteria (Shigella boydii; Shigella boydii NCTC 9732): −
Hydrolysis by Gram negative bacteria (Shigella boydii; Shigella boydii NCTC 9850): −
Hydrolysis by Gram negative bacteria (Shigella flexneri; Shigella flexneri NCTC 8192): −
Hydrolysis by Gram negative bacteria (Shigella flexneri; Shigella flexneri NCTC 9723): −
Hydrolysis by Gram negative bacteria (Shigella flexneri; Shigella flexneri NCTC 9780): −
Hydrolysis by Gram negative bacteria (Shigella sonnei; Shigella sonnei NCTC 8219): −
Hydrolysis by Gram negative bacteria (Shigella sonnei; Shigella sonnei NCTC 8574): −
Hydrolysis by Gram negative bacteria (Shigella sonnei; Shigella sonnei NCTC 8586): −
Hydrolysis by Gram negative bacteria (Shigella sonnei; Shigella sonnei NCTC 9774): −
Hydrolysis by Gram negative bacteria (Shigella sonnei; Shigella sonnei NCTC 10352): −
Hydrolysis by Gram negative bacteria (Vibrio mimicus): −
Hydrolysis by Gram negative bacteria (Vibrio fluvialis): ++
Hydrolysis by Gram negative bacteria (Vibrio alcaligenes): −
Hydrolysis by Gram positive organisms (Streptococcus salivarius): ++
Hydrolysis by Gram positive organisms (Streptococcus crista): −
Hydrolysis by Gram positive organisms [1]: −
Hydrolysis by Gram positive organisms (Streptococcus agalactiae): −
Hydrolysis by Gram positive organisms ([2]; Haemolytic streptococcus B 1): −
Hydrolysis by Gram positive organisms ([2]; Haemolytic streptococcus B 2): −
Hydrolysis by Gram positive organisms ([2]; Haemolytic streptococcus B 3): −
Hydrolysis by Gram positive organisms ([3]; Haemolytic streptococcus C 1): −
Hydrolysis by Gram positive organisms [3, 8]: −
Hydrolysis by Gram positive organisms [3, 9]: −
Hydrolysis by Gram positive organisms (Staphylococcus aureus; Staphylococcus aureus 1): −
Hydrolysis by Gram positive organisms (Staphylococcus aureus; Staphylococcus aureus 2): −
Hydrolysis by Gram positive organisms (Staphylococcus aureus; Staphylococcus aureus 3): −
Hydrolysis by Gram positive organisms (Staphylococcus aureus; Staphylococcus aureus 4): −
Hydrolysis by Gram positive organisms (Staphylococcus aureus; Staphylococcus aureus 5): −
Hydrolysis by Gram positive organisms ([4]; Staphylococcus saprophyticus 1): −
Hydrolysis by Gram positive organisms ([4]; Staphylococcus saprophyticus 2): −
Hydrolysis by Gram positive organisms ([4]; Staphylococcus saprophyticus 3): −
Hydrolysis by Gram positive organisms ([4]; Staphylococcus saprophyticus 4): −
Hydrolysis by Gram positive organisms ([4]; Staphylococcus saprophyticus 5): −
Hydrolysis by Gram positive organisms (Enterococcus gellinarum): ++
colony colour and diffusion (Gram positive bacteria; Strains of Listeria and enterococci): intense black colonies with no diffusion of the black chelate
Gram positive bacteria tested that hydrolysed the substrate (Gram positive bacteria): 22.5%

O=c1cc(-c2ccc(OC3OC(CO)C(O)C3O)c(O)c2)oc2ccccc12 [DHF-riboside, 3′,4′-dihydroxyflavone-4′-β-D-ribofuranoside Sodium Salt]
Hydrolysis by Gram negative bacteria (Shigella dysenteriae; [5]): ++
Hydrolysis by Gram negative bacteria (Shigella dysenteriae; [6]): ++
Hydrolysis by Gram negative bacteria (Shigella dysenteriae; [7]): ++
Hydrolysis by Gram negative bacteria (K. pneumoniae; K. pneumoniae KPN 2): ++
Hydrolysis by Gram negative bacteria (K. pneumoniae; K. pneumoniae KPN 3): ++
Hydrolysis by Gram negative bacteria (K. pneumoniae; K. pneumoniae KPN 4): ++
Hydrolysis by Gram negative bacteria (K. pneumoniae; K. pneumoniae NCTC 10896): ++
Hydrolysis by Gram negative bacteria (K. oxytoca; K. oxytoca KOX 1): ++
Hydrolysis by Gram negative bacteria (K. oxytoca; K. oxytoca KOX 2): ++
Hydrolysis by Gram negative bacteria (Aeromonas sobria): 0
Hydrolysis by Gram negative bacteria (E. cloacae; E. cloacae ECL 1): ++
Hydrolysis by Gram negative bacteria (E. cloacae; E. cloacae ECL 2): ++
Hydrolysis by Gram negative bacteria (E. cloacae; E. cloacae ECL 3): ++
Hydrolysis by Gram negative bacteria (E. cloacae; E. cloacae ECL 4): ++
Hydrolysis by Gram negative bacteria (E. cloacae; E. cloacae NCTC 11936): ++
Hydrolysis by Gram negative bacteria (Salmonella oranienburg): ++
Hydrolysis by Gram negative bacteria (Salmonella hadar): ++
Hydrolysis by Gram negative bacteria (Salmonella orthmarchen): ++
Hydrolysis by Gram negative bacteria (Vibrio furnissii): −
Hydrolysis by Gram negative bacteria (Vibrio vulnificus; Vibrio vulnificus NCTC 11066): −
Hydrolysis by Gram negative bacteria (Vibrio vulnificus; Vibrio vulnificus NCTC 11067): −
Hydrolysis by Gram negative bacteria (Salmonella alachia): ++
Hydrolysis by Gram negative bacteria (Shigella boydii; Shigella boydii NCTC 9327): ++
Hydrolysis by Gram negative bacteria (Shigella boydii; Shigella boydii NCTC 9732): ++
Hydrolysis by Gram negative bacteria (Shigella boydii; Shigella boydii NCTC 9850): ++
Hydrolysis by Gram negative bacteria (Shigella flexneri; Shigella flexneri NCTC 8192): ++
Hydrolysis by Gram negative bacteria (Shigella flexneri; Shigella flexneri NCTC 9723): ++
Hydrolysis by Gram negative bacteria (Shigella flexneri; Shigella flexneri NCTC 9780): ++
Hydrolysis by Gram negative bacteria (Shigella sonnei; Shigella sonnei NCTC 8219): ++
Hydrolysis by Gram negative bacteria (Shigella sonnei; Shigella sonnei NCTC 8574): ++
Hydrolysis by Gram negative bacteria (Shigella sonnei; Shigella sonnei NCTC 8586): ++
Hydrolysis by Gram negative bacteria (Shigella sonnei; Shigella sonnei NCTC 9774): ++
Hydrolysis by Gram negative bacteria (Shigella sonnei; Shigella sonnei NCTC 10352): ++
Hydrolysis by Gram negative bacteria (Vibrio mimicus): −
Hydrolysis by Gram negative bacteria (Vibrio fluvialis): ++
Hydrolysis by Gram negative bacteria (Vibrio alcaligenes): −
Hydrolysis by Gram positive organisms (Streptococcus salivarius): −
Hydrolysis by Gram positive organisms (Streptococcus crista): −
Hydrolysis by Gram positive organisms [1]: −
Hydrolysis by Gram positive organisms (Streptococcus agalactiae): −
Hydrolysis by Gram positive organisms ([2]; Haemolytic streptococcus B 1): −
Hydrolysis by Gram positive organisms ([2]; Haemolytic streptococcus B 2): −
Hydrolysis by Gram positive organisms ([2]; Haemolytic streptococcus B 3): −
Hydrolysis by Gram positive organisms ([3]; Haemolytic streptococcus C 1): −
Hydrolysis by Gram positive organisms [3, 8]: −
Hydrolysis by Gram positive organisms [3, 9]: −
Hydrolysis by Gram positive organisms (Staphylococcus aureus; Staphylococcus aureus 1): ++
Hydrolysis by Gram positive organisms (Staphylococcus aureus; Staphylococcus aureus 2): ++
Hydrolysis by Gram positive organisms (Staphylococcus aureus; Staphylococcus aureus 3): ++
Hydrolysis by Gram positive organisms (Staphylococcus aureus; Staphylococcus aureus 4): ++
Hydrolysis by Gram positive organisms (Staphylococcus aureus; Staphylococcus aureus 5): ++
Hydrolysis by Gram positive organisms ([4]; Staphylococcus saprophyticus 1): ++
Hydrolysis by Gram positive organisms ([4]; Staphylococcus saprophyticus 2): ++
Hydrolysis by Gram positive organisms ([4]; Staphylococcus saprophyticus 3): ++
Hydrolysis by Gram positive organisms ([4]; Staphylococcus saprophyticus 4): ++
Hydrolysis by Gram positive organisms ([4]; Staphylococcus saprophyticus 5): ++
Hydrolysis by Gram positive organisms (Enterococcus gellinarum): +
Gram positive bacteria tested that hydrolysed the substrate (Gram positive bacteria): 30.8%
